The results in this text go back to patent US20100047246A1, “Methods and Compositions for Treating Vascular Disease” (The General Hospital Corporation, priority 2006, published 2010).

For one data set, the system named is Tg(flk1:GFP) embryos. Put plainly: lycat morpholino and mRNA injections, cloche phenotype and GFP scoring in transgenic embryos. Format: in vivo, zebrafish. The settings on record: for flk1:GFP signals in vessels: 24 hpf; for flk1:GFP signals in vessels / gata1:GFP signal in the blood islands: a345 control, lycat RNA 300 ng/ul; for flk1:GFP signals in vessels / gata1:GFP signal in the blood islands / Wild-type (phenotype), number of embryos / clo (phenotype), number of embryos: d522 0.3 mM; for gata1:GFP signal in the blood islands: gata1:GFP embryos; for Wild-type (phenotype), number of embryos / clo (phenotype), number of embryos: injected into 1- to 2-cell stage Tg(flk1:GFP) embryos, scored at 36 hpf and 48 hpf, a345 0.5 mM, Lycat RNA 0.3 μg/μl. As for the experimental part: The cloche alleles, clo^m39 and clo^m378 have been previously described (Stainier et al., Development 121:3141, 1995; Stainier et al., Development 123:285, 1996). A new ENU-induced allele, clo^fv087b was also used. Genetic mapping of cloche was carried out using hybrid F1 (Clo^m39×TL, clo^m378×TL, clo^fv087b×WIK). Transgenic lines Tg(flk1:GFP) and Tg(gata1:GFP) (Long et al., Proc. Natl. Acad. Sci. U.S.A. 94:6267, 1997; Cross et al., ArterioScler. Thromb. Vasc. Biol. 23:911, 2003), were crossed with heterozygous clo^fv087b fish to generate transgenic clo^fv087b individuals. Examining cloche phenotypes and the GFP expression of embryos from sibling crossings identified heterozygous clo^fv087b/+ fish with the Tg(flk1:GFP) or Tg(gata1:GFP).
(§1) Four morpholinos were synthesized: three anti-sense morpholinos targeting the zebrafish lycat ATG site (atg): […] (SEQ ID NO:5); the second splicing donor site (d322): […] (SEQ ID NO:6); the third splicing donor site (d522): […] (SEQ ID NO:7); and a control morpholino (a345): […] (SEQ ID NO:8) (Gene Tools, LLC). Zebrafish lycat and mouse lycat were cloned into the pCS2 vector, and capped mRNA was synthesized using mRNA in vitro transcription kits (Ambion Inc., Austin, Tex.). Morpholinos and mRNA were injected into one- or two-cell stage wild-type, clo^fv087b; Tg(flk1:GFP) or clo^fv087b; Tg(gata1:GFP) embryos. Injected embryos were incubated at 28.5° C. for examination of phenotypes or were fixed for in situ hybridization. The bright-field pictures were taken using a Zeiss M12 dissecting microscope, and the fluorescence pictures were taken with a Zeiss Stemi SVII Apo fluorescence microscope.

The subject of data set [1] is scl expression in the ICM. Put plainly: scl RNA in situ hybridization in injected embryos. The settings on record: d522 0.3 mM, 0.4 mM, 0.5 mM, 20 hpf, RNA in situ analysis. Format: in vivo, zebrafish.
Source text: FIG. 3. Antisense lycat morpholinos mimic the cloche mutant phenotype and lycat mRNA rescues morpholino mediated knockdown.
as §1
In situ hybridization and antibody staining were done in the presence of blocking solution (Roche, Basil, Switzerland), in the RNA hybridization solution, and antibody staining solution (Schulte-Merker, Looking at embryos, 2002). […]

“a345: control morpholino: GCAGCGGGCACTGCTGGTGGAAGT (SEQ ID NO:8) (all phosphorodiamidate morpholino (PMO)) [reference compound]”: in the data set on Tg(flk1:GFP) embryos, the “flk1:GFP signals in vessels” value was “strong flk1:GFP signals”; the “gata1:GFP signal in the blood islands” value is listed as “strong gata1:GFP signal”; the “Wild-type (phenotype), number of embryos” value is 65; the “clo (phenotype), number of embryos” value was 0.

For the substance “d522: anti-sense morpholino targeting zebrafish lycat third splicing donor site: CTGAACACACACACTGACCGAAGC (SEQ ID NO:7) (all phosphorodiamidate morpholino (PMO))”, the “injected embryos showing a clear cloche phenotype (lack blood cells, vascular endothelium, endocardium)” value in the data set with Tg(flk1:GFP) embryos (0.3 mM d522, 5 nl, Tg(flk1:GFP) embryos, 36 hpf and 48 hpf, 132 out of 150) is listed as 88%. Further, in the data set on Tg(flk1:GFP) embryos, the “flk1:GFP signals in vessels” value was “very little flk1:GFP signals”; the “gata1:GFP signal in the blood islands” value was “very little gata1:GFP signal”; the “Wild-type (phenotype), number of embryos” value is recorded as 18; the “clo (phenotype), number of embryos” value came to 132. Also, in data set [1], the “scl expression in the ICM” value was “decreased scl”. Further, the “scl expression in the ICM” value in data set [1] (listed as lycat morpholino) is listed as “reduces expression of Scl in the intermediate cell mass (ICM) in a dose-dependent manner”.
